Results reported in patent US12162863B2, “Modulators of stimulator of interferon genes (STING)” (RYVU THERAPEUTICS S.A., priority 2018, dated 2024).

Experiments:
[1] = tested on: NF-κB pathway in THP-1 dual cells; assay: THP-1 Dual Reporter Assay, NF-κB pathway (SEAP reporter); assay type: cell-based; details: Homo sapiens, THP1-Dual, 18 h of stimulation, absorbance at 630 nm, read-out: THP1 Dual EC50 (μM) NFkB
In short: (§1)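 THP-1 dual cells stimulated 18 h with STING agonist; medium then sampled. IRF pathway: luciferase (ISG54 promoter/ISRE) read as luminescence immediately after reagent addition. NF-κB pathway: SEAP (IFN-β minimal promoter/NF-κB elements) developed 2 h at 37 °C, absorbance at 630 nm.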

[2] = tested on: interferon regulatory factor (IRF) pathway in THP-1 dual cells; assay: THP-1 Dual Reporter Assay, IRF pathway (luciferase reporter); assay type: cell-based; details: Homo sapiens, THP1-Dual, 18 h of stimulation, luminescence
In short: as §1

[3] = molecular target: human STING (Homo sapiens, UniProt Q86WV6); assay: Fluorescence Thermal Shift assay; assay type: binding; details: 50 μM compound; STING 0.1 mg/ml; 20 minutes preincubation; read-out: [hSTING] FTS, ΔTm [° C.] for 50 μM
In short: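 Human STING at a final 0.1 mg/ml was preincubated with compound for 20 min in 50 mM Hepes, 150 mM NaCl, pH 7.5, then SyproOrange dye was added. Thermal unfolding ran from 25 to 99° C at 0.033° C/s, continuous ramp. Values are reported as ΔTm (° C).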

human STING, sequence (Q86WV6 whole entry H232R): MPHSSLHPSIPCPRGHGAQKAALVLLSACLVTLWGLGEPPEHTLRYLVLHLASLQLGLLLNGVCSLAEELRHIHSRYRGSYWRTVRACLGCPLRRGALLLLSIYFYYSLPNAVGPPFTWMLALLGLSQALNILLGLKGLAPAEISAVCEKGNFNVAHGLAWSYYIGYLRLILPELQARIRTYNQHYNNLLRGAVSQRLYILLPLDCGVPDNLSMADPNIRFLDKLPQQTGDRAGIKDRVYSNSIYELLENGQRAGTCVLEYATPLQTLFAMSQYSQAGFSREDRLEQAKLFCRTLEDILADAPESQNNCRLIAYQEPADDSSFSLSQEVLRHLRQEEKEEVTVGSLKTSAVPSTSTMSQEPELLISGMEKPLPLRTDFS

EC50 [1] [µM]	EC50 [2] [µM]	ΔTm at 50 µM [3] [°C]	SMILES
10 to 20	≤ 10	> 2.5	Cc1cc(CN(CCCc2cccnc2)Cc2cn(C)c3ccccc3c2=O)ccn1 [Example 101, 1-methyl-3-({[(2-methylpyridin-4-yl)methyl][3-(pyridin-3-yl)propyl]amino}methyl)-1,4-dihydroquinolin-4-one]
≥ 20	≥ 20	< 2.5	COc1cc(CN(CCCc2ccnnc2)Cc2cn(C)c3ccccc3c2=O)ccn1 [Example 102, 3-({[(2-methoxypyridin-4-yl)methyl][3-(pyridazin-4-yl)propyl]amino}methyl)-1-methyl-1,4-dihydroquinolin-4-one]
≥ 20	≥ 20	< 2.5	COc1cc(CN(CCCn2cc(C(N)=O)nn2)Cc2cn(C)c3ccccc3c2=O)ccn1 [Example 103, 1-(3-{[(2-methoxypyridin-4-yl)methyl][(1-methyl-4-oxo-1,4-dihydroquinolin-3-yl)methyl]amino}propyl)-1H-1,2,3-triazole-4-carboxamide]
